Test results reported in publication PMC9469208 (Journal of Medicinal Chemistry, 2022).
Several values for one entry are separate records, joined by “and”; a condition that tells them apart may be missing. Identical values can stand only once. Like-named read-outs stand apart in the source and are kept apart here.

How the values were obtained:
mGluR1 = target: T1, mGluR1 (Rattus norvegicus, UniProt P23385); test: mGluR1 binding (agonist radioligand); conditions: read-out: % Inhibition of control specific binding, mGluR1
T1 construct: purchased Cerep (Eurofins), Poitiers, France; Promega P450-Glo; in-house COS-7 uptake assays

Dopamine transporter (h) = target: T2, Dopamine transporter (h) (Homo sapiens, UniProt Q01959); test: Dopamine transporter (h) (antagonist radioligand); type: binding; conditions: read-out: % Inhibition, Dopamine transporter (h)
T2 construct: purchased Cerep (Eurofins), Poitiers, France; Promega P450-Glo; in-house COS-7 uptake assays
Excerpt: (§1) The general information is listed in the Supporting Information.

CB1 (h) = target: T3, CB1 (h) (Homo sapiens, UniProt P21554); test: CB1 (h) functional assay; type: cell-based
T3 construct: purchased Cerep (Eurofins), Poitiers, France; Promega P450-Glo; in-house COS-7 uptake assays
Excerpt: as §1

GlyRA1 = target: T4, GlyRA1 (Homo sapiens, UniProt P23415); type: cell-based
T4 construct: purchased Cerep (Eurofins), Poitiers, France; Promega P450-Glo; in-house COS-7 uptake assays
T4 sequence (P23415 29-457): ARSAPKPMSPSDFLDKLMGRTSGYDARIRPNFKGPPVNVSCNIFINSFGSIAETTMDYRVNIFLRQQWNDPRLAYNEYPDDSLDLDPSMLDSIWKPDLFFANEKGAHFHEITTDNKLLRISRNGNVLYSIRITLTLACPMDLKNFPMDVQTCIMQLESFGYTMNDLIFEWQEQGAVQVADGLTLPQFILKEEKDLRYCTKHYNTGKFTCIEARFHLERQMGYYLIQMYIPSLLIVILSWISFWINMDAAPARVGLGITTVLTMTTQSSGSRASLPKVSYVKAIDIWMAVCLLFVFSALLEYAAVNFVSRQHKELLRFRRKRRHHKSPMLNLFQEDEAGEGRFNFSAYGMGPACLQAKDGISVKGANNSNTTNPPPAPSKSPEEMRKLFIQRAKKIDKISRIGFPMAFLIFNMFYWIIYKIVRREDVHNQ

EAAT3 = EAAT3 (Homo sapiens, UniProt P43005); conditions: transfected COS-7 cells
mGlu2 (h) = target: T5, mGlu2 (h) (Homo sapiens, UniProt Q14416); test: mGlu2 (h) binding (antagonist radioligand); conditions: human recombinant (Chem-1 cells), read-out: % Inhibition of control specific binding, mGlu2 (h)
T5 construct: purchased Cerep (Eurofins), Poitiers, France; Promega P450-Glo; in-house COS-7 uptake assays
Excerpt: as §1

hERG potassium channel = hERG potassium channel (Homo sapiens, UniProt Q12809); test: in vitro
sst4 (h) = target: T6, sst4 (h) (Homo sapiens, UniProt P31391); test: sst4 (h) functional assay; type: cell-based
T6 construct: purchased Cerep (Eurofins), Poitiers, France; Promega P450-Glo; in-house COS-7 uptake assays
Excerpt: as §1

Acetylcholinesterase (h) = target: T7, Acetylcholinesterase (h) (Homo sapiens, UniProt P22303); test: Acetylcholinesterase (h) enzymatic activity; type: biochemical; conditions: read-out: % Inhibition, Acetylcholinesterase (h) enzymatic activity
T7 construct: purchased Cerep (Eurofins), Poitiers, France; Promega P450-Glo; in-house COS-7 uptake assays
Excerpt: as §1

D2L (h) = target: T8, D2L (h) (Homo sapiens, UniProt P14416); test: D2L (h) functional assay; type: cell-based
T8 construct: purchased Cerep (Eurofins), Poitiers, France; Promega P450-Glo; in-house COS-7 uptake assays
Excerpt: as §1

[1] = target: T9, Norepinephrine transporter (h) (Homo sapiens, UniProt P23975); test: Norepinephrine transporter (h) (antagonist radioligand); type: binding; conditions: read-out: % Inhibition, Norepinephrine transporter (h)
T9 construct: purchased Cerep (Eurofins), Poitiers, France; Promega P450-Glo; in-house COS-7 uptake assays
Excerpt: as §1

5-HT7 (h) = target: T10, 5-HT7 (h) (Homo sapiens, UniProt P34969); test: 5-HT7 (h) functional assay; type: cell-based
T10 construct: purchased Cerep (Eurofins), Poitiers, France; Promega P450-Glo; in-house COS-7 uptake assays
Excerpt: as §1

[2] = target: T11, GLYT1 Glycine Transporter (Homo sapiens, UniProt P48067); test: GLYT1 glycine transporter binding; conditions: rat brain, listed as (R)-7 [(R)-AS-1]
T11 construct: purchased Cerep (Eurofins), Poitiers, France; Promega P450-Glo; in-house COS-7 uptake assays
Excerpt: as §1

D1 (h) = target: T12, D1 (h) (Homo sapiens, UniProt P21728); test: D1 (h) functional assay; type: cell-based
T12 construct: purchased Cerep (Eurofins), Poitiers, France; Promega P450-Glo; in-house COS-7 uptake assays
Excerpt: as §1

hCav3.2 = hCav3.2 (Homo sapiens, UniProt O95180); test: cell-based
Glutamate, NMDA, Glycine = Glutamate, NMDA, Glycine (Rattus norvegicus, UniProt P35439); test: Glutamate NMDA glycine [3H]MDL 105,519 binding; conditions: read-out: % Inhibition of control specific binding, Glutamate, NMDA, Glycine [3H] MDL 105,519
Excerpt: as §1

5-HT6 (h) = target: T13, 5-HT6 (h) (Homo sapiens, UniProt P50406); test: 5-HT6 (h) functional assay; type: cell-based
T13 construct: purchased Cerep (Eurofins), Poitiers, France; Promega P450-Glo; in-house COS-7 uptake assays
Excerpt: as §1

EAAT1 = EAAT1 (Homo sapiens, UniProt P43003); conditions: transfected COS-7 cells
Alpha 1A (h) = target: T14, Alpha 1A (h) (Homo sapiens, UniProt P35348); test: Alpha 1A (h) functional assay; type: cell-based
T14 construct: purchased Cerep (Eurofins), Poitiers, France; Promega P450-Glo; in-house COS-7 uptake assays
Excerpt: as §1

[3] = 100 mg/kg i.p., mice
sst2 (h) = target: T15, sst2 (h) (Homo sapiens, UniProt P30874); test: sst2 (h) functional assay; type: cell-based
T15 construct: purchased Cerep (Eurofins), Poitiers, France; Promega P450-Glo; in-house COS-7 uptake assays
Excerpt: as §1

recombinant human CYP2C9 = target: T16, recombinant human CYP2C9 (Homo sapiens, UniProt P11712); test: CYP2C9 activity assay; type: in vitro ADME; conditions: comparable to the racemate
T16 construct: purchased Cerep (Eurofins), Poitiers, France; Promega P450-Glo; in-house COS-7 uptake assays

mGluR5 (h) = target: T17, mGluR5 (h) (Homo sapiens, UniProt P41594); test: mGluR5 (h) binding (agonist radioligand); conditions: human recombinant, read-out: % Inhibition of control specific binding, mGluR5 (h)
T17 construct: purchased Cerep (Eurofins), Poitiers, France; Promega P450-Glo; in-house COS-7 uptake assays
Excerpt: as §1

human SV2A = target: T18, human SV2A (Homo sapiens, UniProt Q7L0J3); test: SV2A radioligand binding assay ([3H]brivaracetam); conditions: [3H]brivaracetam 3 nM, human SV2A-expressing CHO cell lysate
T18 construct: expressed in transfected cells; host or cells: CHO cells
Method: (§2) The competitive radioligand-binding assay was essentially performed as previously described.[96],[97] The SV2A-containing preparations, either cell lysate of human SV2A-expressing CHO cells, or membrane preparations of mouse brain cortex, were incubated with the radioligand [^3H]brivaracetam (3 nM) in the absence or presence of test compound for 4 h. Incubation was performed in 500 μL of Tris-buffer (50 mM Tris–HCl, pH 7.4) containing 2 mM MgCl2 at 4 °C on a rocking shaker. […] The test compounds were dissolved in dimethyl sulfoxide (DMSO) and further diluted in DMSO. The DMSO concentration in all vials was adjusted to 2%. The separation of bound and unbound radioligand was performed via rapid vacuum filtration using GF/C glass fiber filters that had been presoaked in Tris-buffer containing 0.1% polyethyleneimine for 30 min. The filters were rapidly washed three times with about 1 mL of Tris-buffer each and subsequently placed in a drying oven at 50 °C for 90 min. The filters were then transferred to scintillation vials and 2.5 mL of scintillation cocktail (ProSafe FC+, Meridian Biotechnologies Ltd.) was added. After an incubation period of at least 9 h, radioactivity was measured in a scintillation counter. Results were analyzed by GraphPad Prism 7.0.

mouse SV2A = target: T19, mouse SV2A (Mus musculus, UniProt Q9JIS5); test: SV2A radioligand binding assay ([3H]brivaracetam); conditions: mouse brain cortex membranes
T19 construct: membrane preparations of mouse brain cortex; from tissue; host or cells: mouse brain cortex membranes
Method: as §2

recombinant human CYP2D6 = target: T20, recombinant human CYP2D6 (Homo sapiens, UniProt P10635); test: CYP2D6 P450-Glo assay; type: in vitro ADME; conditions: only at the highest concentration of 25 μM
T20 construct: purchased Cerep (Eurofins), Poitiers, France; Promega P450-Glo; in-house COS-7 uptake assays
Excerpt: (§3) The luminescent CYP3A4 P450-Glo and CYP2D6 P450-Glo assays and protocols were provided by Promega (Madison, WI).[98] The procedures were provided by the manufacturer and were similar as previously reported for the racemate I.[29]

recombinant human CYP3A4 = target: T21, recombinant human CYP3A4 (Homo sapiens, UniProt P08684); test: CYP3A4 P450-Glo assay; type: in vitro ADME
T21 construct: purchased Cerep (Eurofins), Poitiers, France; Promega P450-Glo; in-house COS-7 uptake assays
Excerpt: as §3

[4] = 10 μM, listed as (R)-7 [(R)-AS-1]
[5] = 100 μM, listed as (R)-7 [(R)-AS-1]

T8 sequence (P14416 whole entry): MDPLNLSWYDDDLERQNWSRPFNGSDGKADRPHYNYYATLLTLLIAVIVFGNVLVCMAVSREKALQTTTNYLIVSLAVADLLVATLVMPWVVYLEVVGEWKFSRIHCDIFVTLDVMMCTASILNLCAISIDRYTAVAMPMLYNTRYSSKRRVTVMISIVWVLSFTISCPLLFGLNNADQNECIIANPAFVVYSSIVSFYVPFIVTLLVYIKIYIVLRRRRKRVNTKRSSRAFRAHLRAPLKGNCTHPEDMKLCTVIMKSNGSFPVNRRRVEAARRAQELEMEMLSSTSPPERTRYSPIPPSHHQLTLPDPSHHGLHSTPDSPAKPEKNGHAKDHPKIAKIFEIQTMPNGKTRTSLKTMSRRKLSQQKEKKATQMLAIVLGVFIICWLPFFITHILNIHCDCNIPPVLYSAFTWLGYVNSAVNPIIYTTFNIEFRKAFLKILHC
hCav3.2, sequence (O95180 whole entry): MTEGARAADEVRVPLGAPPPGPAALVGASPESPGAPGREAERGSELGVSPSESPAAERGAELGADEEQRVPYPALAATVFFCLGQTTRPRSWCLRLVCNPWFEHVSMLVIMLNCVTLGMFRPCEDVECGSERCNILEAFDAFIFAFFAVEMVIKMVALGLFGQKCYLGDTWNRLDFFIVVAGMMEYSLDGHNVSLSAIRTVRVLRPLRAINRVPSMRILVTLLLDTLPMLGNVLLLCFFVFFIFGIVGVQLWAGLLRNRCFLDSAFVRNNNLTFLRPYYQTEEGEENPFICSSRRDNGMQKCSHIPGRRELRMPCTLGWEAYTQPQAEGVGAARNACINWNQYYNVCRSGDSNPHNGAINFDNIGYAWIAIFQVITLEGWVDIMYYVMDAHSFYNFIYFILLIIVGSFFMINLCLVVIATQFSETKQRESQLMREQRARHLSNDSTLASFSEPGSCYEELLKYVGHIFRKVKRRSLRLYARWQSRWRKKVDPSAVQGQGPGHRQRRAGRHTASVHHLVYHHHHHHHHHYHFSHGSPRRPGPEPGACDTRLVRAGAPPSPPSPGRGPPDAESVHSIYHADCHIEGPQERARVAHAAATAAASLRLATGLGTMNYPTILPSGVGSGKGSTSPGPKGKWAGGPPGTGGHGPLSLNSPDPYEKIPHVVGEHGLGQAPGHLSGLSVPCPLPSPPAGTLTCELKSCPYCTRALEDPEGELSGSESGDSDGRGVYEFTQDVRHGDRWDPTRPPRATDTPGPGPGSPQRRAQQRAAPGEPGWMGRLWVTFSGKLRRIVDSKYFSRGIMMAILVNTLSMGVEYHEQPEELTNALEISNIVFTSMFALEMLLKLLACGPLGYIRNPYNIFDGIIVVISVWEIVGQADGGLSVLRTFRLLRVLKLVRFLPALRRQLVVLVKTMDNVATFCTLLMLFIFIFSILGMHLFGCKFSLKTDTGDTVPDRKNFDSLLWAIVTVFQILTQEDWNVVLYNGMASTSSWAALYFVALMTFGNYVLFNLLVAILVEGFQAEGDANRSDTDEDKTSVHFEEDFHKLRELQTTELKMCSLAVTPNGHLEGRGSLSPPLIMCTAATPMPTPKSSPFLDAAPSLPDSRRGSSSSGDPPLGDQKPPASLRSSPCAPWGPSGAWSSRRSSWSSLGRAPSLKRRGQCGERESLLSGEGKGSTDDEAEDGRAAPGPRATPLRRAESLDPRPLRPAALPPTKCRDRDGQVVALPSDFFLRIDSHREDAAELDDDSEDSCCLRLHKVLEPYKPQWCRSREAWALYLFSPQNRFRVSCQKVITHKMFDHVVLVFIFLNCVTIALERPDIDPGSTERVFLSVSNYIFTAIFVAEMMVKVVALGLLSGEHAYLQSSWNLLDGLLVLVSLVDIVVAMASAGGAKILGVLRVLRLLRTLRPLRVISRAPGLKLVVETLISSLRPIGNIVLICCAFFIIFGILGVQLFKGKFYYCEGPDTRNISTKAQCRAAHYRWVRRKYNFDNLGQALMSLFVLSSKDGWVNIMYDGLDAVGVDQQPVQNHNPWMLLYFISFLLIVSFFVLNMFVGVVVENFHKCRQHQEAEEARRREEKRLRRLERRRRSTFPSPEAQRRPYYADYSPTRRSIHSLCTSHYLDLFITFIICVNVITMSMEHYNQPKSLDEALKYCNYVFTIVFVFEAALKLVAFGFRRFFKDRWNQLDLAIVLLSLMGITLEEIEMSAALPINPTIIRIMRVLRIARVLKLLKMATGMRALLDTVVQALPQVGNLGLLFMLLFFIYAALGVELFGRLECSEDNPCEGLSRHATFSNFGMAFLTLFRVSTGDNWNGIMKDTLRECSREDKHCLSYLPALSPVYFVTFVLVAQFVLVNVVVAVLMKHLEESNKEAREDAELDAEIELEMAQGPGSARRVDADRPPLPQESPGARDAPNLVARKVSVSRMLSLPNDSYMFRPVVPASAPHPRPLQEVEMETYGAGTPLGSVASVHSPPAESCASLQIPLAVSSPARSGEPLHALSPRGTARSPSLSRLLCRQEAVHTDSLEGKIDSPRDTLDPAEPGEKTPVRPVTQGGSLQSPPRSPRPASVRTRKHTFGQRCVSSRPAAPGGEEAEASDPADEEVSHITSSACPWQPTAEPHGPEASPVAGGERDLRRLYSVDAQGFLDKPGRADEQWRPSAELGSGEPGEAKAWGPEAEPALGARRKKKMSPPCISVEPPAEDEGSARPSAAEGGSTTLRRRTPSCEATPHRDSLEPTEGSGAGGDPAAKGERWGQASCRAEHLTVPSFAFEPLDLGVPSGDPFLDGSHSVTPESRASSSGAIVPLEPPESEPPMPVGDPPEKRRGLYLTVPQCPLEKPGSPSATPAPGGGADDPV
T13 sequence (P50406 whole entry): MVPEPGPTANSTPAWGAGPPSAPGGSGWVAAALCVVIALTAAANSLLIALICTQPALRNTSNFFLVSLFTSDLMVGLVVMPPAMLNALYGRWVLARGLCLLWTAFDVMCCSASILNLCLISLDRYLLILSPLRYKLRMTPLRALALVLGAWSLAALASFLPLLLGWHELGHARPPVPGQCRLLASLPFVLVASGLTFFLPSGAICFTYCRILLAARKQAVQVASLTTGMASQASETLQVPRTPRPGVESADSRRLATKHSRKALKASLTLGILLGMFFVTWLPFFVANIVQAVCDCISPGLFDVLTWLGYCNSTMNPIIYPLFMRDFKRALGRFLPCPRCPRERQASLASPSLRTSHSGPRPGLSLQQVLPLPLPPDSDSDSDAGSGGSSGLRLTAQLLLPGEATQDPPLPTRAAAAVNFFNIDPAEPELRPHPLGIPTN
T15 sequence (P30874 whole entry): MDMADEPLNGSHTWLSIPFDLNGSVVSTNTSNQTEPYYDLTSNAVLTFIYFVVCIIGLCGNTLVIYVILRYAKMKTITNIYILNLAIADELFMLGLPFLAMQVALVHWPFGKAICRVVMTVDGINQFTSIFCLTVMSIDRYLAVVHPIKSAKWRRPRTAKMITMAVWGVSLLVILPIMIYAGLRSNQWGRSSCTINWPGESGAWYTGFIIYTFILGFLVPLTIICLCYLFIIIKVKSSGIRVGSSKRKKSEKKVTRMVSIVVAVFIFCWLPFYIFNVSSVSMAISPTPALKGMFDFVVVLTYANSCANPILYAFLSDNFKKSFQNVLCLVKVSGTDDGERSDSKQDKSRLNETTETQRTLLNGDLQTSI
T12 sequence (P21728 whole entry): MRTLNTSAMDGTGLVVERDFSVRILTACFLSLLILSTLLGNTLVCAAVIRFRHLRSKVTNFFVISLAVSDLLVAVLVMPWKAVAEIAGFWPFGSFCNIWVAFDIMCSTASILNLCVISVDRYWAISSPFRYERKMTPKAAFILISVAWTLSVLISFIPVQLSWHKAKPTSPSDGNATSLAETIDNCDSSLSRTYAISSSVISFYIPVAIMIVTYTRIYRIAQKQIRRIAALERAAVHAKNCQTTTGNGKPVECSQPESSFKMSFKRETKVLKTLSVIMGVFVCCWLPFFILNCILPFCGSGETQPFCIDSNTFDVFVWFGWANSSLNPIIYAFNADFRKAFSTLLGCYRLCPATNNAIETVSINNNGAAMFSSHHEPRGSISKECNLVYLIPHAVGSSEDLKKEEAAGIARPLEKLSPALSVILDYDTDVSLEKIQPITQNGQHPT
T3 sequence (P21554 whole entry): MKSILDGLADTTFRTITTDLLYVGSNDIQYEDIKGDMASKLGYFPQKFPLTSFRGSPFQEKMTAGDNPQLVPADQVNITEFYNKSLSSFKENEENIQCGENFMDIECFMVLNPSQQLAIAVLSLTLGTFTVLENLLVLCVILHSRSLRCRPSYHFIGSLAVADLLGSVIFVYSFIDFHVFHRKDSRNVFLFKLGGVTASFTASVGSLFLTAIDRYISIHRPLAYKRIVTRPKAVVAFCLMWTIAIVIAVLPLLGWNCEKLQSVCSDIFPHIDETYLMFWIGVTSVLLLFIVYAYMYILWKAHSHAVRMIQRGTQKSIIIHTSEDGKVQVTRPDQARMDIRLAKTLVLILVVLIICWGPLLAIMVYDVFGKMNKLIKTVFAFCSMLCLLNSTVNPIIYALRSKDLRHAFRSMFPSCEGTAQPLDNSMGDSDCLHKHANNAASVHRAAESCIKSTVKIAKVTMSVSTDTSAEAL
T6 sequence (P31391 whole entry): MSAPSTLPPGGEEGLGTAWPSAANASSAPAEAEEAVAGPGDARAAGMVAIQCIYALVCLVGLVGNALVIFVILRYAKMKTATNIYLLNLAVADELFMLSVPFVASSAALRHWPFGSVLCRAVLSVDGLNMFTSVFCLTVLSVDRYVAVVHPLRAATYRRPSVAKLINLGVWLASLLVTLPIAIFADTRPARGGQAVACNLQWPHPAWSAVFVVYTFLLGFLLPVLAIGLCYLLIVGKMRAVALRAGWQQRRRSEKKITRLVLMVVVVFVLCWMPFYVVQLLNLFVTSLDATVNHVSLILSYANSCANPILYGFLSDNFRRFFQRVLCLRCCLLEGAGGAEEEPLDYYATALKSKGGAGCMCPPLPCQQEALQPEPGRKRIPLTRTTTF

C[C@H](C(=O)NCc1ccccc1)N1C(=O)CCC1=O [(R)-7, (R)-N-Benzyl-2-(2,5-dioxopyrrolidin-1-yl)propanamide]
inhibition at 10 µM (mGluR1; 10 μM, rat brain): -6.72%
inhibition at 100 µM (mGluR1): -6.72%
inhibition at 100 µM (Dopamine transporter (h)): -2.69%
% Effect, CB1 (h) (Agonist effect) (CB1 (h); 10 µM (as printed in the xlsx)): -6.83 (10 µM) %
% Effect, CB1 (h) (Agonist effect) (CB1 (h); 100 μM): -6.83%
inhibition at 100 µM (CB1 (h); read-out: % Inhibition, CB1 (h) (Antagonist effect)): 5.59%
GlyRA1 agonist, % Control, Mean (GlyRA1): 1.94% and 1.94 (100 µM) %
GlyRA1 agonist, % Control, n1 (GlyRA1): 1.83%
GlyRA1 agonist, % Control, n2 (GlyRA1): 2.05%
effect on EAAT3-mediated glutamate uptake (EAAT3): no effects
inhibition at 50 µM (mGlu2 (h)): -8%
inhibition at 100 µM (hERG potassium channel): -8.02%
% Effect, sst4 (h) (Agonist effect) (sst4 (h); [4]): -7.88% and -7.88 (10 µM) %
inhibition at 50 µM (sst4 (h); 50 μM, read-out: % Inhibition, sst4 (h) (Antagonist effect)): 8.25%
inhibition at 10 µM (Acetylcholinesterase (h)): 1.59%
% Effect, D2L (h) (Agonist effect) (D2L (h); [5]): 0.22% and 0.22 (100 µM) %
inhibition at 100 µM (D2L (h); read-out: % Inhibition, D2L (h) (Antagonist effect)): 3.27%
inhibition at 100 µM [1]: 3.01%
% Effect, 5-HT7 (h) (Agonist effect) (5-HT7 (h); [4]): -4.26% and -4.26 (10 µM) %
inhibition at 10 µM (5-HT7 (h); read-out: % Inhibition, 5-HT7 (h) (Antagonist effect)): -25%
% Inhibition of control specific binding, GLYT1 Glycine Transporter ([2]; 10 μM): -2.00% and -1.00%
% Inhibition of control specific binding, GLYT1 Glycine Transporter ([2]; 100 μM): -1.00% and -2.00%
% Effect, D1 (h) (Agonist effect) (D1 (h); [5]): 1.70% and 1.70 (100 µM) %
inhibition at 100 µM (D1 (h); read-out: % Inhibition, D1 (h) (Antagonist effect)): -2.57%
inhibition at 100 µM (hCav3.2; read-out: hCav3.2 % Inhibition, Mean): -0.79%
inhibition at 100 µM (hCav3.2; read-out: hCav3.2 % Inhibition, n1): 5.25%
inhibition at 100 µM (hCav3.2; read-out: hCav3.2 % Inhibition, n2): -6.84%
inhibition at 10 µM (Glutamate, NMDA, Glycine): -3%
% Effect, 5-HT6 (h) (Agonist effect) (5-HT6 (h); [5]): -0.26% and -0.26 (100 µM) %
inhibition at 100 µM (5-HT6 (h); read-out: % Inhibition, 5-HT6 (h) (Antagonist effect)): -6.42%
effect on EAAT1-mediated glutamate uptake (EAAT1): no effects
% Effect, Alpha 1A (h) (Agonist effect) (Alpha 1A (h); [5]): -2.05% and 2.05 (100 µM) %
inhibition at 100 µM (Alpha 1A (h); read-out: % Inhibition, Alpha 1A (h) (Antagonist effect)): 1.28%
AUC0–∞, brain ([3]; listed as (R)-7 [(R)-AS-1]): 2813.0 μg·min/mL(g) and 2813.04 μg·min/mL(g)
AUC0–∞, serum ([3]; listed as (R)-7 [(R)-AS-1]): 4625.8 μg·min/mL(g) and 4625.78 μg·min/mL(g)
Cmax, serum ([3]; listed as (R)-7 [(R)-AS-1]): 82.7 μg/mL(g) and 82.73 μg/mL(g)
total clearance ([3]; noncompartmental approach): approx. 0.6 mL/min
% Effect, sst2 (h) (Agonist effect) (sst2 (h); [4]): 0.50% and 0.50 (10 µM) %
inhibition at 50 µM (sst2 (h); 50 μM, read-out: % Inhibition, sst2 (h) (Antagonist effect)): 5.25%
effect in the CYP2C9 assay (recombinant human CYP2C9): moderate inhibitory effect
inhibition at 10 µM (mGluR5 (h)): -7.78%
Ki (human SV2A): 275 µM and > 250 µM
Binding to mouse SV2A (mouse SV2A): no binding observed
effect on CYP2D6 (recombinant human CYP2D6): slight activation
CYP3A4 activity (recombinant human CYP3A4; 10 μM, ± SD): 100.4 ± 4.2 % of control
effect on CYP3A4 (recombinant human CYP3A4; only at the highest concentration of 25 μM): slight inhibition

C[C@@H](C(=O)NCc1ccccc1)N1C(=O)CCC1=O [(S)-7, (S)-N-Benzyl-2-(2,5-dioxopyrrolidin-1-yl)propanamide]
Ki (human SV2A): 255 ± 69 µM
Binding to mouse SV2A (mouse SV2A): no binding observed
